Entries after “also recorded” stand apart in the source; their conditions may differ. Where two headings read alike, the source gives them in different places.
Key:
normal pigs = assay: Haemodynamic effects after LAD injection in normal pigs without balloon occlusion (Example 2b); assay type: in vivo, pig; conditions: 25 ml (0.4 ml/sec) into LAD, 9 injections in 3 pigs
Description: FIG. 5 depicts the effect of Compound I (with and without added Ca) and Visipaque on LVSP 45 to 70 seconds from the start of injection to the LAD of normal pigs normalised to Ringer Lacate (LR) injection.
The haemodynamic effects of compositions of Compound I with and without added CaCl2 were compared to Visipaque and Iopamidol following selective administration to the LAD in normal pigs without balloon occlusion. The effects of each contrast media were normalised to any effects seen with an equivalent injection of Ringer Lactate solution, which acted as a volume and electrolyte—“ratio” control. There were a total of 12 pigs in this study, and each pig received a single CM injected 3 times at volumes of 10 ml (4 ml/sec), 20 ml (1 ml/sec) and 25 ml (0.4 ml/sec) (total of 9 CM injections in each pig). Each CM was either preceded or followed by a control injection of Ringer Lactate, and the order of each injection (volume) was randomised in each pig.

[1] = test system: human serum albumin (HSA); assay: Binding to human serum albumin, equilibrium dialysis; assay type: in vitro ADME; conditions: 25 hours, citrated human plasma
Protocol: The binding of Compound I to human serum albumin (HSA) was determined using an equilibrium dialysis method. The binding of Compound I to human serum albumin was determined to be very low, 3.1±1.3%, confirming the negligible interaction of the substance with endogenous proteins.
The binding of Compound I to human serum albumin (HSA) was determined using an equilibrium dialysis method. A stock solution of Compound I (5.0 mg/ml in phosphate buffered saline (PBS)) was mixed with citrate:human plasma in a ratio of 1:9. Equilibration was carried out in a Diachem Dianorm Dialyser against an aqueous phosphate buffered saline using a Diachem 10.17 MW cutoff 10000 membrane and was carried out for 25 hours. Analysis of the solutions was performed using an ICP-AES instrument. In addition, spiked PBS solutions were also equilibrated against citrated human plasma solutions to ensure that the equilibrium had been obtained. The binding of Compound I to human serum albumin was determined to be very low, 3.1±1.3%, confirming the negligible interaction of the substance with endogenous proteins. As a reference, the binding of iodixanol to HSA was determined to 0.4±0.9%.

[2] = Partition coefficient between octanol and water; assay type: physicochemical; conditions: n-octanol/water
Protocol: As a measure of the hydrophilicity of Compound I, the partition coefficient between octanol and water was determined. Water (5 ml) containing the test substance (0.3 mg/ml) was shaken with 15 ml n-octanol until equilibrium had been obtained. The aqueous phase was separated by centrifugation and analyzed by HPLC (HP1100 equipped with a Discovery C18 column, 100×2.1 mm) using UV detection at 244 nm and a flow of 0.3 ml/min. Isocratic HPLC conditions were used, 8% acetonitrile in water (v/v). The octanol phase (12.5 ml) was extracted with water (0.75 ml) until equilibrium had been obtained and the phases were separated by centrifugation. The aqueous phase was analyzed by HPLC using the conditions detailed above. Both octanol and water were pre-saturated with water and octanol, respectively, before the partition coefficient experiments. […] As a comparison, the corresponding logP of iodixanol was determined to −4.02. The reported literature value is −4.05. The increased hydrophilicity of Compound I compared to iodixanol is confirmed by its HPLC behavior.

[3] = Osmolality, vapour pressure osmometer; assay type: physicochemical; conditions: 320 mgI/ml
Protocol: The osmolality of Compound I was determined at four different concentrations, 204, 254, 310 and 324 mgI/ml. The osmolality of Compound I at 320 mgI/ml is 136 mOsm/kg.
The osmolality of Compound I was determined at four different concentrations, 204, 254, 310 and 324 mgI/ml. A Vapro 5520 vapour pressure osmometer from Vapro Inc. was used.
The osmolality of Compound I at 320 mgI/ml is lower than that of iodixanol, 136 mOsm/kg vs 210 mOsm/kg at 320 mgI/ml.

Sca:SD rats = conditions: rat, in vivo
Protocol: Young adult male Sca:SD rats (Scanbur, Sweden), weighing 200±20 g, were injected intravenously at a rate of 1.2 ml/min with either Compound I (340 mgI/mL, 286 mosmol/kg), iodixanol (321 mgI/mL, 284 mosmol/kg), osmotic control mannitol (283 mosmol/kg), or saline (290 mosmol/kg), administered as 2 separate doses 4 hours apart. For the interim kill animals (day 2 post-treatment), Compound I and iodixanol were dosed at 8, 10 and 12.8 gI/kg, corresponding to total dose volumes of 23.7, 29.7 and 38.0 ml/kg, and 25, 31.3 and 40 ml/kg, respectively, whereas for mannitol and saline, the dose volume was 40 ml/kg. For the 7 day terminal kill animals, there were 4 dose groups; Compound I and iodixanol (12.8 gI/kg), and saline and mannitol (40 mL/kg). In all cases, each group included 8 animals.
The following evaluations were made during the study; clinical signs, body weights and blood for haematology and clinical chemistry on days 0, 2 and 7, and gross observations, organ weight and histomorphological examination of tissues from the animals killed by excess intravenous thiopental injection on days 2 or 7. The day of dosing was defined as Day 0. Clinical biochemistry parameters (Na, K, Cl, PO4, Ca, AST, ALT, ALP, cholesterol, creatinine, CK, GGT, TG (triglyceride), total bilirubin, total protein, urea, albumin, LDH and GLDH were measured on a Beckman Synchron CX5 at 37° C. Haematology parameters (WBC, differential WBC, RBC, WBC/RBC ratio, Hgb, PLT, HCT, MCH, MCHC, MCV, MPV and RDW) were analyzed with an Abbott Cell-Dyn 3500 CS automated haematology analyzer. Kidneys from saline control and the 12.8 gI/kg Compound I and iodixanol groups were immerse fixed in 10% neutral buffered formalin, processed into paraffin wax, sectioned at a nominal thickness of 5 μm, stained with haematoxylin and eosin and examined by light microscopy.
The data were analysed by parametric one-way ANOVA, followed by Dunnett's post procedure test, using the 2 days and 7 days saline groups for comparison with the 2 days and 7 days iodixanol and Compound I groups. The statistical analysis was applied on day −1 (baseline), day 2 and day 7.

[4] = test system: CD25^+-depleted peripheral blood mononuclear cells; assay: In vitro T cell proliferation model; assay type: cell-based; conditions: 2 and 5 mg I/mL
Protocol: Generally, iodinated contrast media may cause late hypersensitivity reactions in susceptible patients from 1 hour to several days after exposure. These reactions are mainly non-serious skin eruptions such as macular, maculopapular and urticaria-like eruptions. Contrast media-induced delayed adverse reactions (DARs) such as skin eruptions appear to be caused by contrast media-reactive T cells that, upon recognizing the contrast media, proliferate and subsequently orchestrate an inflammatory reaction in the skin. The applicant has evaluated an in vitro T cell proliferation model designed to predict the relative frequency with which contrast media, such as Compound I, will cause late skin reactions in patients post-intravascular administration. Two contrast media, iodixanol and iohexol, with known rates of delayed skin reactions, and the new contrast medium, Compound I, was screened (2 and 5 mg I/mL) for in vitro T cell proliferation in CD25^+-depleted peripheral blood mononuclear cells from 100 donors representing world population HLA-DR frequencies. Positive T cell responses were evaluated according to published protocols and stimulation index values (positive response≧1.9). In vitro toxicity was tested by measuring cell viability of the first 10 donor samples incubated with test contrast media (5 mg I/mL). The results were that all major HLA-DR allotypes were represented with a frequency equivalent to the world population. No contrast media tested appeared to have a meaningful effect on cell viability. […] For iodixanol and iohexol, T cell proliferation responses for most donors occurred on days 7 and 8; statistical significance favored a reduced proliferation response to Compound I on day 8. In conclusions the model successfully established the relative frequency with which contrast media caused in vitro T cell activation. The results correlated with reported frequency of late skin reactions with two marketed contrast media and identified a lower frequency for Compound I.

[5] = octanol/water; cited from earlier work

SMILES	induction of ventricular fibrillation (VF) (normal pigs)	binding to human serum albumin (HSA) [1] [%]	logP [2]	osmolality [3] [mOsm/kg]	Glomerulus: Bowman's Space Proteinaceous Material, Right Kidney (Sca:SD rats; male, Sca:SD, 2 day)	duration of clinical signs (Sca:SD rats; male, Sca:SD, iv) [h]	onset of clinical signs after the first administration (Sca:SD rats; male, Sca:SD, iv) [min]	Glomerulus: Bowman's Space Proteinaceous Material, Right Kidney (Sca:SD rats)	adverse clinical signs (Sca:SD rats; iv)	days on which T cell proliferation responses occurred for most donors [4]	logP, reported literature value [5]
C[C@H](O)C(=O)Nc1c(I)c(C(=O)NC(CO)CO)c(I)c(C(=O)NC(CO)CO)c1I [Iopamidol, reference compound]	VF was observed in each case; also recorded: induced VF on every occasion	–	–	–	–	–	–	–	–	–	–
CC(=O)N(CC(O)CN(C(C)=O)c1c(I)c(C(=O)NCC(O)CO)c(I)c(C(=O)NCC(O)CO)c1I)c1c(I)c(C(=O)NCC(O)CO)c(I)c(C(=O)NCC(O)CO)c1I (stereo not drawn) [iodixanol, reference compound]	–	0.4±0.9	-4.02	210	P, P, P, 0	2 to 3	10 to 20	P, P, P, P,	mild to moderate depression and uncoordinated movements and weakness/inactivity	days 7 and 8	−4.05
CC(=O)N(CC(O)CO)c1c(I)c(C(=O)NCC(O)CO)c(I)c(C(=O)NCC(O)CO)c1I (stereo not drawn) [iohexol, reference compound]	–	–	–	–	–	–	–	–	–	days 7 and 8	–
